Source: publication PMC4450297, “Screening Active Compounds from Garcinia Species Native to China Reveals Novel Compounds Targeting the STAT/JAK Signaling Pathway” (BioMed Research International, 2015)

Test system: M059J
Assay: Cell panel screen (CellTiter-Glo)
Type: cell-based, human
Settings: M059J (Brain), 20 micromolar, 72 hrs
Description: (§1) All cells were obtained from the cell bank of the American Type Culture Collection (ATCC) and cultured in the supplier's recommended media supplemented with 10% FBS. The cell panel screen was measured using the CellTiter-Glo assay (Promega, Madison, WI) following a standard protocol. Briefly, cancer cells were seeded in 96-well plates and cultured overnight at 37°C with or without 5% CO2 in an incubator. Each compound was dissolved with limited DMSO and diluted to a certain concentration with culture medium and then added to the corresponding well of the cell plate. The final concentration of compound was 20 μM. The control cells (without treatment) received the same amount of DMSO and were incubated under the same conditions. After 72 h cultivation, 100 μL of the CellTiter-Glo reagent was added directly to each well for 10-minute incubation. The plate was then read on a FlexStation 3 microplate luminometer (Molecular Devices, USA) to monitor the luminescence signal generated by the luciferase-catalyzed reaction of luciferin and ATP. The percent of growth inhibition was calculated using the following formula: (untreated cells − treated cells)/(untreated cells − background without cells) ∗ 100.

Compound	Percent Inhibition [%]
O=C1c2c(O)cc(O)cc2OC(c2ccc(O)cc2)C1c1c(O)cc(O)c2c(=O)cc(-c3ccc(O)c(O)c3)oc12 (stereo not drawn) [WZ-4]	-1

Test system: NCI-H2405
Assay: Cell panel screen (CellTiter-Glo)
Type: cell-based, human
Settings: NCI-H2405 (Lung), 20 micromolar, 72 hrs
Description: as §1

Compound	Percent Inhibition [%]
O=C1c2c(O)cc(O)cc2OC(c2ccc(O)cc2)C1c1c(O)cc(O)c2c(=O)cc(-c3ccc(O)c(O)c3)oc12 (stereo not drawn) [WZ-4]	-14

Test system: NCI-H2347
Assay: Cell panel screen (CellTiter-Glo)
Type: cell-based, human
Settings: NCI-H2347 (Lung), 20 micromolar, 72 hrs
Description: as §1

Compound	Percent Inhibition [%]
O=C1c2c(O)cc(O)cc2OC(c2ccc(O)cc2)C1c1c(O)cc(O)c2c(=O)cc(-c3ccc(O)c(O)c3)oc12 (stereo not drawn) [WZ-4]	-4

Test system: T47D
Assay: Cell panel screen (CellTiter-Glo)
Type: cell-based, human
Settings: T47D (Breast), 20 micromolar, 72 hrs
Description: as §1

Compound	Percent Inhibition [%]
O=C1c2c(O)cc(O)cc2OC(c2ccc(O)cc2)C1c1c(O)cc(O)c2c(=O)cc(-c3ccc(O)c(O)c3)oc12 (stereo not drawn) [WZ-4]	6

Test system: HPAF-II
Assay: Cell panel screen (CellTiter-Glo)
Type: cell-based, human
Settings: HPAF-II (Pancreas), 20 micromolar, 72 hrs
Description: as §1

Compound	Percent Inhibition [%]
O=C1c2c(O)cc(O)cc2OC(c2ccc(O)cc2)C1c1c(O)cc(O)c2c(=O)cc(-c3ccc(O)c(O)c3)oc12 (stereo not drawn) [WZ-4]	-10

Test system: C8166
Assay: Cell panel screen (CellTiter-Glo)
Type: cell-based, human
Settings: C8166 (Leukemia), 20 micromolar, 72 hrs
Description: as §1

Compound	Percent Inhibition [%]
O=C1c2c(O)cc(O)cc2OC(c2ccc(O)cc2)C1c1c(O)cc(O)c2c(=O)cc(-c3ccc(O)c(O)c3)oc12 (stereo not drawn) [WZ-4]	-3

Test system: BT-474
Assay: Cell panel screen (CellTiter-Glo)
Type: cell-based, human
Settings: BT-474 (Breast), 20 micromolar, 72 hrs
Description: as §1

Compound	Percent Inhibition [%]
O=C1c2c(O)cc(O)cc2OC(c2ccc(O)cc2)C1c1c(O)cc(O)c2c(=O)cc(-c3ccc(O)c(O)c3)oc12 (stereo not drawn) [WZ-4]	-5

Test system: HT-1197
Assay: Cell panel screen (CellTiter-Glo)
Type: cell-based, human
Settings: HT-1197 (Urinary bladder), 20 micromolar, 72 hrs
Description: as §1

Compound	Percent Inhibition [%]
O=C1c2c(O)cc(O)cc2OC(c2ccc(O)cc2)C1c1c(O)cc(O)c2c(=O)cc(-c3ccc(O)c(O)c3)oc12 (stereo not drawn) [WZ-4]	-4

Test system: NCI-H28
Assay: Cell panel screen (CellTiter-Glo)
Type: cell-based, human
Settings: NCI-H28 (Lung), 20 micromolar, 72 hrs
Description: as §1

Compound	Percent Inhibition [%]
O=C1c2c(O)cc(O)cc2OC(c2ccc(O)cc2)C1c1c(O)cc(O)c2c(=O)cc(-c3ccc(O)c(O)c3)oc12 (stereo not drawn) [WZ-4]	0

Test system: HCC1599
Assay: Cell panel screen (CellTiter-Glo)
Type: cell-based, human
Settings: HCC1599 (Breast), 20 micromolar, 72 hrs
Description: as §1

Compound	Percent Inhibition [%]
O=C1c2c(O)cc(O)cc2OC(c2ccc(O)cc2)C1c1c(O)cc(O)c2c(=O)cc(-c3ccc(O)c(O)c3)oc12 (stereo not drawn) [WZ-4]	8

Test system: MSTO-211-H
Assay: Cell panel screen (CellTiter-Glo)
Type: cell-based, human
Settings: MSTO-211-H (Lung), 20 micromolar, 72 hrs
Description: as §1

Compound	Percent Inhibition [%]
O=C1c2c(O)cc(O)cc2OC(c2ccc(O)cc2)C1c1c(O)cc(O)c2c(=O)cc(-c3ccc(O)c(O)c3)oc12 (stereo not drawn) [WZ-4]	6

Test system: HCC1395
Assay: Cell panel screen (CellTiter-Glo)
Type: cell-based, human
Settings: HCC1395 (Breast), 20 micromolar, 72 hrs
Description: as §1

Compound	Percent Inhibition [%]
O=C1c2c(O)cc(O)cc2OC(c2ccc(O)cc2)C1c1c(O)cc(O)c2c(=O)cc(-c3ccc(O)c(O)c3)oc12 (stereo not drawn) [WZ-4]	16

Test system: Bel-7402
Assay: Cell panel screen (CellTiter-Glo)
Type: cell-based, human
Settings: Bel-7402 (Liver), 20 micromolar, 72 hrs
Description: as §1

Compound	Percent Inhibition [%]
O=C1c2c(O)cc(O)cc2OC(c2ccc(O)cc2)C1c1c(O)cc(O)c2c(=O)cc(-c3ccc(O)c(O)c3)oc12 (stereo not drawn) [WZ-4]	-3

Test system: HCC1937
Assay: Cell panel screen (CellTiter-Glo)
Type: cell-based, human
Settings: HCC1937 (Breast), 20 micromolar, 72 hrs
Description: as §1

Compound	Percent Inhibition [%]
O=C1c2c(O)cc(O)cc2OC(c2ccc(O)cc2)C1c1c(O)cc(O)c2c(=O)cc(-c3ccc(O)c(O)c3)oc12 (stereo not drawn) [WZ-4]	0

Test system: BT-549
Assay: Cell panel screen (CellTiter-Glo)
Type: cell-based, human
Settings: BT-549 (Breast), 20 micromolar, 72 hrs
Description: as §1

Compound	Percent Inhibition [%]
O=C1c2c(O)cc(O)cc2OC(c2ccc(O)cc2)C1c1c(O)cc(O)c2c(=O)cc(-c3ccc(O)c(O)c3)oc12 (stereo not drawn) [WZ-4]	-12

Test system: TCCSUP
Assay: Cell panel screen (CellTiter-Glo)
Type: cell-based, human
Settings: TCCSUP (Urinary bladder), 20 micromolar, 72 hrs
Description: as §1

Compound	Percent Inhibition [%]
O=C1c2c(O)cc(O)cc2OC(c2ccc(O)cc2)C1c1c(O)cc(O)c2c(=O)cc(-c3ccc(O)c(O)c3)oc12 (stereo not drawn) [WZ-4]	3

Test system: NCI-H1770
Assay: Cell panel screen (CellTiter-Glo)
Type: cell-based, human
Settings: NCI-H1770 (Lung), 20 micromolar, 72 hrs
Description: as §1

Compound	Percent Inhibition [%]
O=C1c2c(O)cc(O)cc2OC(c2ccc(O)cc2)C1c1c(O)cc(O)c2c(=O)cc(-c3ccc(O)c(O)c3)oc12 (stereo not drawn) [WZ-4]	-10

Test system: ChaGo-K-1
Assay: Cell panel screen (CellTiter-Glo)
Type: cell-based, human
Settings: ChaGo-K-1 (Lung), 20 micromolar, 72 hrs
Description: as §1

Compound	Percent Inhibition [%]
O=C1c2c(O)cc(O)cc2OC(c2ccc(O)cc2)C1c1c(O)cc(O)c2c(=O)cc(-c3ccc(O)c(O)c3)oc12 (stereo not drawn) [WZ-4]	-14

Test system: Panc 03.27
Assay: Cell panel screen (CellTiter-Glo)
Type: cell-based, human
Settings: Panc 03.27 (Pancreas), 20 micromolar, 72 hrs
Description: as §1

Compound	Percent Inhibition [%]
O=C1c2c(O)cc(O)cc2OC(c2ccc(O)cc2)C1c1c(O)cc(O)c2c(=O)cc(-c3ccc(O)c(O)c3)oc12 (stereo not drawn) [WZ-4]	-16

Test system: C3A
Assay: Cell panel screen (CellTiter-Glo)
Type: cell-based, human
Settings: C3A (Liver), 20 micromolar, 72 hrs
Description: as §1

Compound	Percent Inhibition [%]
O=C1c2c(O)cc(O)cc2OC(c2ccc(O)cc2)C1c1c(O)cc(O)c2c(=O)cc(-c3ccc(O)c(O)c3)oc12 (stereo not drawn) [WZ-4]	-2

Test system: RL95
Assay: Cell panel screen (CellTiter-Glo)
Type: cell-based, human
Settings: RL95 (Uterus), 20 micromolar, 72 hrs
Description: as §1

Compound	Percent Inhibition [%]
O=C1c2c(O)cc(O)cc2OC(c2ccc(O)cc2)C1c1c(O)cc(O)c2c(=O)cc(-c3ccc(O)c(O)c3)oc12 (stereo not drawn) [WZ-4]	-2

Test system: CCF-STTG1
Assay: Cell panel screen (CellTiter-Glo)
Type: cell-based, human
Settings: CCF-STTG1 (Brain), 20 micromolar, 72 hrs
Description: as §1

Compound	Percent Inhibition [%]
O=C1c2c(O)cc(O)cc2OC(c2ccc(O)cc2)C1c1c(O)cc(O)c2c(=O)cc(-c3ccc(O)c(O)c3)oc12 (stereo not drawn) [WZ-4]	0

Test system: NCI-H1694
Assay: Cell panel screen (CellTiter-Glo)
Type: cell-based, human
Settings: NCI-H1694 (Lung), 20 micromolar, 72 hrs
Description: as §1

Compound	Percent Inhibition [%]
O=C1c2c(O)cc(O)cc2OC(c2ccc(O)cc2)C1c1c(O)cc(O)c2c(=O)cc(-c3ccc(O)c(O)c3)oc12 (stereo not drawn) [WZ-4]	-10

Test system: Colo 205
Assay: Cell panel screen (CellTiter-Glo)
Type: cell-based, human
Settings: Colo 205, 20 micromolar, 72 hrs
Description: as §1

Compound	Percent Inhibition [%]
O=C1c2c(O)cc(O)cc2OC(c2ccc(O)cc2)C1c1c(O)cc(O)c2c(=O)cc(-c3ccc(O)c(O)c3)oc12 (stereo not drawn) [WZ-4]	-6

Test system: T98G
Assay: Cell panel screen (CellTiter-Glo)
Type: cell-based, human
Settings: T98G (Brain), 20 micromolar, 72 hrs
Description: as §1

Compound	Percent Inhibition [%]
O=C1c2c(O)cc(O)cc2OC(c2ccc(O)cc2)C1c1c(O)cc(O)c2c(=O)cc(-c3ccc(O)c(O)c3)oc12 (stereo not drawn) [WZ-4]	-2

Test system: NCI-H524
Assay: Cell panel screen (CellTiter-Glo)
Type: cell-based, human
Settings: NCI-H524 (Lung), 20 micromolar, 72 hrs
Description: as §1

Compound	Percent Inhibition [%]
O=C1c2c(O)cc(O)cc2OC(c2ccc(O)cc2)C1c1c(O)cc(O)c2c(=O)cc(-c3ccc(O)c(O)c3)oc12 (stereo not drawn) [WZ-4]	-18

Test system: HEC-1-A
Assay: Cell panel screen (CellTiter-Glo)
Type: cell-based, human
Settings: HEC-1-A (Uterus), 20 micromolar, 72 hrs
Description: as §1

Compound	Percent Inhibition [%]
O=C1c2c(O)cc(O)cc2OC(c2ccc(O)cc2)C1c1c(O)cc(O)c2c(=O)cc(-c3ccc(O)c(O)c3)oc12 (stereo not drawn) [WZ-4]	10

Test system: A704
Assay: Cell panel screen (CellTiter-Glo)
Type: cell-based, human
Settings: A704 (Kidney), 20 micromolar, 72 hrs
Description: as §1

Compound	Percent Inhibition [%]
O=C1c2c(O)cc(O)cc2OC(c2ccc(O)cc2)C1c1c(O)cc(O)c2c(=O)cc(-c3ccc(O)c(O)c3)oc12 (stereo not drawn) [WZ-4]	-1

Test system: A498
Assay: Cell panel screen (CellTiter-Glo)
Type: cell-based, human
Settings: A498 (listed under Lung), 20 micromolar, 72 hrs
Description: as §1

Compound	Percent Inhibition [%]
O=C1c2c(O)cc(O)cc2OC(c2ccc(O)cc2)C1c1c(O)cc(O)c2c(=O)cc(-c3ccc(O)c(O)c3)oc12 (stereo not drawn) [WZ-4]	4

Test system: ZR-75-30
Assay: Cell panel screen (CellTiter-Glo)
Type: cell-based, human
Settings: ZR-75-30 (Breast), 20 micromolar, 72 hrs
Description: as §1

Compound	Percent Inhibition [%]
O=C1c2c(O)cc(O)cc2OC(c2ccc(O)cc2)C1c1c(O)cc(O)c2c(=O)cc(-c3ccc(O)c(O)c3)oc12 (stereo not drawn) [WZ-4]	8

Test system: HGC-27
Assay: Cell panel screen (CellTiter-Glo)
Type: cell-based, human
Settings: HGC-27 (Stomach), 20 micromolar, 72 hrs
Description: as §1

Compound	Percent Inhibition [%]
O=C1c2c(O)cc(O)cc2OC(c2ccc(O)cc2)C1c1c(O)cc(O)c2c(=O)cc(-c3ccc(O)c(O)c3)oc12 (stereo not drawn) [WZ-4]	-4

Test system: HCC1569
Assay: Cell panel screen (CellTiter-Glo)
Type: cell-based, human
Settings: HCC1569 (Breast), 20 micromolar, 72 hrs
Description: as §1

Compound	Percent Inhibition [%]
O=C1c2c(O)cc(O)cc2OC(c2ccc(O)cc2)C1c1c(O)cc(O)c2c(=O)cc(-c3ccc(O)c(O)c3)oc12 (stereo not drawn) [WZ-4]	-17

Test system: SW13
Assay: Cell panel screen (CellTiter-Glo)
Type: cell-based, human
Settings: SW13 (Adrenal gland), 20 micromolar, 72 hrs
Description: as §1

Compound	Percent Inhibition [%]
O=C1c2c(O)cc(O)cc2OC(c2ccc(O)cc2)C1c1c(O)cc(O)c2c(=O)cc(-c3ccc(O)c(O)c3)oc12 (stereo not drawn) [WZ-4]	5

Test system: NCI-H1623
Assay: Cell panel screen (CellTiter-Glo)
Type: cell-based, human
Settings: NCI-H1623 (Lung), 20 micromolar, 72 hrs
Description: as §1

Compound	Percent Inhibition [%]
O=C1c2c(O)cc(O)cc2OC(c2ccc(O)cc2)C1c1c(O)cc(O)c2c(=O)cc(-c3ccc(O)c(O)c3)oc12 (stereo not drawn) [WZ-4]	-15

Test system: CW-2
Assay: Cell panel screen (CellTiter-Glo)
Type: cell-based, human
Settings: CW-2 (Colon), 20 micromolar, 72 hrs
Description: as §1

Compound	Percent Inhibition [%]
O=C1c2c(O)cc(O)cc2OC(c2ccc(O)cc2)C1c1c(O)cc(O)c2c(=O)cc(-c3ccc(O)c(O)c3)oc12 (stereo not drawn) [WZ-4]	11

Test system: J82
Assay: Cell panel screen (CellTiter-Glo)
Type: cell-based, human
Settings: J82 (Urinary bladder), 20 micromolar, 72 hrs
Description: as §1

Compound	Percent Inhibition [%]
O=C1c2c(O)cc(O)cc2OC(c2ccc(O)cc2)C1c1c(O)cc(O)c2c(=O)cc(-c3ccc(O)c(O)c3)oc12 (stereo not drawn) [WZ-4]	-5
